Experimental data from PubChem BioAssay AID489022 (Sanford-Burnham Center for Chemical Genomics, 2010).
pIC50: −log10 of the molar value. Calls of active or inactive are those of the source. How the calls were made is not given here.

Each molecule was assayed on HEK-293T NF-kB luciferase reporter, luminescence counterscreen (assay: inhibitors of NF-kB luciferase reporter, HEK-293T, dose response, counter-screen for BCR NF-kB inhibitor project, luminescence, B-cell screen hits (AID 489022)).

SMILES	pIC50	IC50
CC(C)C(c1nnnn1Cc1ccccc1)N(Cc1ccco1)Cc1cccs1 (stereo not drawn)	5.05	–
CC(C)(C)c1ccc(-c2noc(CCC(=O)N3CCOCC3)n2)cc1	–	35 µM (inactive)
CCn1c(=O)cc(SCC(=O)N2CCN(C)CC2)c2ccccc21	–	> 80 µM (inactive)
CCC(C)[C@H](N)c1nnc(SCC(=O)c2ccc(Cl)cc2)o1 (stereo partly drawn)	–	> 80 µM (inactive)
Cc1[nH]c2ccccc2c1C(=O)CN1C(=O)NC2(CC(C)CC(C)(C)C2)C1=O (stereo not drawn)	–	43.3 µM (inactive)
COc1ccc(-c2ccoc2)cc1[C@H]1[C@H]2C=CC[C@@H](C)[C@@H]2C(=O)N1Cc1ccccc1	4.98	–
N=c1ccn(Cc2c(Cl)cccc2Cl)cc1	4.85	–
O=C(CCl)N(c1ccc(Cl)cc1)c1c[nH]c2ccccc12	4.97	–
COc1ccccc1/C=C1\SC(=S)N(CCC(=O)Nc2nnc(C)s2)C1=O	–	> 80 µM (inactive)
CCOc1ccc(-n2c(SCC(=O)Nc3ccc4c(c3)OCCO4)nc3c(c2=O)SCC3)cc1	–	> 80 µM (inactive)
NC(=O)C1CCN(C(=O)COc2ccc3ccccc3c2Br)CC1	–	> 80 µM (inactive)
O=C1NC[C@H](c2ccccc2)OC(=O)[C@@H](Cc2ccc(F)cc2)C/C=C\C[C@H]1CC(=O)N(CCO)Cc1ccccc1	4.77	–
CC(C)(C)c1ccc(-c2noc(CCC(=O)Nc3cccnc3)n2)cc1	6.26	–
Cc1ccc(C(=O)N2CCCC(c3ccc(Cl)cc3)=N2)cc1	–	36.5 µM (inactive)
CCN1C(=O)c2cccc3c(S(=O)(=O)NCC4CCCO4)ccc1c23 (stereo not drawn)	–	54.5 µM (inactive)
Cc1nc2cc(-c3ccccc3)nn2c(C)c1CCC(=O)N1CCC2(CC1)OCCO2	–	52 µM (inactive)
CC(C)OCCCNC(=O)c1c(N)n(/N=C/c2ccccn2)c2nc3ccccc3nc12	–	> 80 µM (inactive)
CCOc1ccc(-c2cc(CCCC(=O)NCc3ccco3)no2)cc1	–	22.1 µM (inactive)
C=C(C)[C@@H]1CCC2(C(=O)O)CC[C@]3(C)[C@H](CC[C@@H]4[C@@]5(C)CCC(=O)C(C)(C)[C@@H]5CC[C@]43C)[C@@H]12 (stereo partly drawn)	5.48	–

SMILES	pIC50	IC50
CCN(CC(=O)Nc1c(F)cccc1F)C(=O)C1(c2ccccc2)CC1	–	> 80 µM (inactive)
Cc1nc2cc(-c3cccc(F)c3)nn2c(C)c1CCC(=O)N1CCC2(CC1)OCCO2	–	34 µM (inactive)
CC(C)[C@H](N)c1nnc(SCC(=O)c2ccc(Cl)cc2)o1	–	> 80 µM (inactive)
COc1ccc(-c2ccc(F)cc2)cc1[C@H]1[C@H]2C=CC[C@@H](C)[C@@H]2C(=O)N1Cc1ccccc1	4.88	–
CCOc1ccc(S(=O)(=O)NCc2ccncc2)cc1NC(=O)c1ccccc1	5.86	–
Cc1ccc(/C=C2/SC(=S)N(CCCC(=O)Nc3ccc(O)cc3)C2=O)cc1	–	> 80 µM (inactive)
COc1cc(NC(=O)c2ccco2)c(OC)cc1NC(=O)c1cc(OC)c(OC)c(OC)c1	4.75	–
CC1=CC(C)(C)Nc2ccc(OC(=O)C(C)N3C(=O)c4ccccc4C3=O)cc21 (stereo not drawn)	4.94	–
Cc1ccc(/C=C2\SC(=S)N(CCCC(=O)NNC(=O)c3ccccc3O)C2=O)cc1	5.26	–
O=C(CCl)N1CCN(S(=O)(=O)c2ccc3c(c2)CCC3)CC1	–	41.9 µM (inactive)
Cc1nc2cc(-c3ccc(Cl)cc3)nn2c(C)c1CCC(=O)NCc1ccco1	–	> 80 µM (inactive)
COC(=O)C(C)Oc1cc(C)cc2oc(=O)c3c(c12)CCC3 (stereo not drawn)	–	28.6 µM (inactive)
Cc1ccc(S(=O)(=O)Nc2ccc3c(c2)n(C)c(=O)n3C)cc1	–	65.2 µM (inactive)
Cc1c(NC(=O)/C=C/c2cn(-c3ccccc3)nc2-c2ccccc2)c(=O)n(-c2ccccc2)n1C	–	> 80 µM (inactive)
CCn1c(=O)cc(SCC(=O)N2CCC3(CC2)OCCO3)c2ccccc21	–	> 80 µM (inactive)
Cn1c(=O)cc(OCCCC(=O)N2CCCCC2)c2ccccc21	–	60.2 µM (inactive)
O=C(O)CCSc1ncnc2sc(-c3ccccc3)cc12	4.93	–
Cc1c(CCC(=O)N2CCC(C(=O)O)CC2)c(=O)oc2cc3oc4c(c3cc12)CCCC4	4.89	–
COc1cccc(/C=C2/SC(=S)N(CCCC(=O)Nc3ccc(O)cc3)C2=O)c1	–	50.6 µM (inactive)
